From US12410160B2 (Gilead Sciences, Inc., priority 2021, dated 2025)
Where two headings read alike, the source gives them in different places.

Key:
[1] = pKa analysis by capillary electrophoresis (pKa PRO Analyzer, co-solvent method); format: physicochemical; details: co-solvent method (60% to 30% methanol buffers); for pKa: methanol/aqueous co-solvent buffers; for 1st pKa: pH range 1.7-11.2
Procedure: The 10 mM DMSO stock solutions of test articles (TAs) were diluted 100-fold with either 2 mM HCl or 2 mM NaOH and methanol. The final concentration of methanol was 60%, TA concentration was 100 μM, and DMSO concentration was 1%. The TAs were transferred into 24 consecutive wells of a 96-well plate for analysis using the co-solvent method. […] All data was obtained using a pKa. PRO Analyzer (AATI, Ankey, IA) by performing four consecutive CE runs from 60% to 30% co-solvent buffers. Norfloxacin was used as a daily performance-indicating standard. The pKa values were predicted by using pKa. Estimator® software (AATI, Ankey, IA) by relating molecular weight of the TA to its mobility.

[2] = biological target: human KHK-C (Homo sapiens (Human), UniProt P50053); test: KHK Biochemical Assay (IC50), ADP-Glo, KHK-C; details: average of at least two separate assays
Outline: (§1)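 Luminescent ADP-Glo read-out of ADP made by His-tagged KHK (BL21 (DE3) expression, Ni-NTA). Enzyme and compound sat together 30 min before ATP/fructose addition, then reacted 4 h at RT in Hepes pH 7.4 buffer with KCl, MgCl2, Triton-X. Quench 1 h, detection 1 h.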

[3] = biological target: human KHK-A (Homo sapiens (Human), UniProt P50053); test: KHK Biochemical Assay (IC50), ADP-Glo, KHK-A; details: average of at least two separate assays
Outline: as §1

[4] = system: HepG2 cells; test: F1P Cell-Based Assay (EC50), 13C6-fructose-1-phosphate in HepG2 cells (cell culture medium or 50% human plasma)
[5] = biological target: human OATP1B1 (Homo sapiens (Human), UniProt Q9Y6L6); test: In Vitro Inhibition Assessment with Human OATP1B1 Transporter; format: in vitro ADME; details: HEK293-OATP1B1 cells, probe substrate pravastatin
Outline: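 HEK293-OATP1B1 and mock cells were preincubated 15 min with compound in HBSS. They were then coincubated 5 min with compound plus pravastatin (0.4% DMSO final), and intracellular substrate was quantified by LC-MS/MS. Mock-corrected uptake relative to solvent gave percentage activity, from which IC50 was fitted.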

[6] = biological target: KHK-C expressed in NRK-52E cells (Homo sapiens (Human), UniProt P50053); test: KHK-C Cell-based Assay (EC50), NRK CTG, fructose-mediated ATP-depletion
[7] = pH range 1.7-11.2, read-out: 1st pKa
[8] = Homo sapiens, HepG2, HepG2 cells, 50% human plasma, read-out: F1P 50% HP EC50
[9] = Homo sapiens, HepG2, read-out: F1P 10% FBS EC50, HepG2 cells, cell culture medium (10% FBS)
[10] = pH range 1.7-11.2, read-out: 2nd pKa

human KHK-C, sequence (P50053 whole entry): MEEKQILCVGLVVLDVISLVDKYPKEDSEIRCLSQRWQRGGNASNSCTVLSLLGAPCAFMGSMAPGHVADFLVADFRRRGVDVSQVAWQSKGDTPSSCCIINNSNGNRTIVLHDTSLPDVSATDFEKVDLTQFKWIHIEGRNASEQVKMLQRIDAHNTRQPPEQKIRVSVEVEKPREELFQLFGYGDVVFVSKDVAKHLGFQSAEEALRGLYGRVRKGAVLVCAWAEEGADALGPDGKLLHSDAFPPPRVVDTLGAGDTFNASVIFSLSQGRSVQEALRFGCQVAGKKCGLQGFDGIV
KHK-C expressed in NRK-52E cells, sequence (P50053 whole entry): as above
human KHK-A, sequence (P50053 other isoform, or with tags, fused parts or gaps): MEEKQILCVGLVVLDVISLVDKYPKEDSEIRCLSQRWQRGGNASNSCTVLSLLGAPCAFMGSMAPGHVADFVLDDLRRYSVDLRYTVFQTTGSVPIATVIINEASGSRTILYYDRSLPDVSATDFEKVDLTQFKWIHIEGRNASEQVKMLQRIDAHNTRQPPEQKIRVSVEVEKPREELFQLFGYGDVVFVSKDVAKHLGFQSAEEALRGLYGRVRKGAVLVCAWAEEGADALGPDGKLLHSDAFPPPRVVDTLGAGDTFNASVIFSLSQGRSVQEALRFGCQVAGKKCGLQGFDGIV
human OATP1B1, sequence (Q9Y6L6 whole entry): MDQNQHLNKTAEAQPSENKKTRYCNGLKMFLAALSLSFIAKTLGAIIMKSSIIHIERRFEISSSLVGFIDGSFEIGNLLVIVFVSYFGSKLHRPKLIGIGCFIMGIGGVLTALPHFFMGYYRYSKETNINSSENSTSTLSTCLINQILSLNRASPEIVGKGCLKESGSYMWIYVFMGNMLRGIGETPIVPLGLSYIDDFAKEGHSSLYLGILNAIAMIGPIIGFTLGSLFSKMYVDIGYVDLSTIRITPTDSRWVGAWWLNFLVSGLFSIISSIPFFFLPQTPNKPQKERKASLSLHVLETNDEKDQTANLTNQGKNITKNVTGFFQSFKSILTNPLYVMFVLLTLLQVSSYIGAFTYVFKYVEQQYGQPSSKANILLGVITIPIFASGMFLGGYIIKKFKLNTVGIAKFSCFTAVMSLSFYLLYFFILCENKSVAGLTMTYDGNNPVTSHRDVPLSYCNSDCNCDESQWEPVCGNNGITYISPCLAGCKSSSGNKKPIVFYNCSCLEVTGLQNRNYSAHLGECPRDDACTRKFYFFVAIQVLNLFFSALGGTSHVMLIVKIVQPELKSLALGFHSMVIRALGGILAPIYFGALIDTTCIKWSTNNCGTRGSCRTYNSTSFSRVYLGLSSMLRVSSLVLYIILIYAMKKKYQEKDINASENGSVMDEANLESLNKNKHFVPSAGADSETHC

C[C@H]1[C@H](O)CN1c1nc(-c2cccc([S@@](C)(=N)=O)c2)c2c(n1)C(F)(F)CC2 (single isomer, unassigned) [Example 492]
pKa [1, 7]: 2.1 | IC50 [2]: 9 nM | IC50 [3]: 12.2 nM | EC50 [4, 8]: 22.2 nM | EC50 [4, 9]: 20.7 nM | IC50 [5]: 31700 nM | EC50 [6]: 41.8 nM

C[C@H]1[C@H](F)CN1c1nc(-c2ccc([C@@H](N)CS(C)(=O)=O)cc2)c2c(n1)C(F)(F)CC2 (single isomer, unassigned) [Example 789]
1st pKa [1]: 6.4 | IC50 [2]: 3.9 nM | IC50 [3]: 12.5 nM | EC50 ([4]; HepG2 cells, 50% human plasma, read-out: F1P 50% HP EC50): 30.6 nM | EC50 ([4]; read-out: F1P 10% FBS EC50, HepG2 cells, cell culture medium (10% FBS)): 22.7 nM | IC50 [5]: 19700 nM

C[C@H]1[C@H](O)CN1c1nc(-c2ccc([C@]3(N)CCS(=O)(=O)C3)cc2)c2c(n1)C(F)(F)CC2 (single isomer, unassigned) [Example 795]
pKa [1, 7]: 4.9 | IC50 ([2]; ADP-Glo): 4.6 nM | IC50 ([3]; ADP-Glo): 24.1 nM | EC50 [4, 8]: 88.8 nM | EC50 [4, 9]: 52.7 nM | EC50 [6]: 54.5 nM

C[C@H]1CCN1c1nc2c(c(-c3cccc(C(N)=O)c3)n1)CCC2 [Example 8, (S)-3-(2-(2-methylazetidin-1-yl)-6,7-dihydro-5H-cyclopenta[d]pyrimidin-4-yl)benzamide]
pKa [1, 7]: 4.38 | IC50 ([2]; ADP-Glo): 48.1 nM | IC50 ([3]; ADP-Glo): 38.8 nM | IC50 [5]: 1320 nM | EC50 [6]: 128 nM

C[C@H]1CCN1c1nc2c(c(-c3ccc(CN)cc3)n1)CCC2 [Example 188, [4-[2-[(2S)-2-methylazetidin-1-yl]-6,7-dihydro-5H-cyclopenta[d]pyrimidin-4-yl]phenyl]methanamine]
pKa [1, 7]: 4.27 | pKa [1, 10]: 9.27 | IC50 ([2]; ADP-Glo): 2.1 nM | IC50 ([3]; ADP-Glo): 4.2 nM | IC50 [5]: 10200 nM | EC50 [6]: 177 nM

C[C@H]1CCN1c1nc2c(c(-c3ccccc3)n1)CCC2 [Example 331, 2-[(2S)-2-methylazetidin-1-yl]-4-phenyl-6,7-dihydro-5H-cyclopenta[d]pyrimidine]
pKa [1, 7]: 4.14 | IC50 ([2]; ADP-Glo): 242 nM | IC50 ([3]; ADP-Glo): 255 nM | EC50 [4, 8]: 4610 nM | EC50 [4, 9]: 253 nM | EC50 [6]: 384 nM

C[C@H]1CCN1c1nc2c(c(-c3ccc4c(=O)[nH]ccc4c3)n1)CCC2 [Example 364, 6-[2-[(2S)-2-methylazetidin-1-yl]-6,7-dihydro-5H-cyclopenta[d]pyrimidin-4-yl]-2H-isoquinolin-1-one]
pKa [1, 7]: 4.32 | IC50 ([2]; ADP-Glo): 3.3 nM | IC50 ([3]; ADP-Glo): 10 nM | IC50 [5]: 38.9 nM | EC50 [6]: 13.1 nM

C[C@H]1CCN1c1nc2c(c(-c3ccc4c(N)nccc4c3)n1)CCC2 [Example 378, 6-[2-[(2S)-2-methylazetidin-1-yl]-6,7-dihydro-5H-cyclopenta[d]pyrimidin-4-yl]isoquinolin-1-amine]
pKa [1, 7]: 3.29 | pKa [1, 10]: 6.64 | IC50 ([2]; ADP-Glo): 1 nM | IC50 ([3]; ADP-Glo): 3.4 nM | IC50 [5]: 1690 nM | EC50 [6]: 7.7 nM

C[C@H]1CCN1c1nc2c(c(-c3ccc4c(c3)CCNC4)n1)CCC2 [Example 379, 6-[2-[(2S)-2-methylazetidin-1-yl]-6,7-dihydro-5H-cyclopenta[d]pyrimidin-4-yl]-1,2,3,4-tetrahydroisoquinoline]
pKa [1, 7]: 4.31 | pKa [1, 10]: 9.19 | IC50 ([2]; ADP-Glo): 4.6 nM | IC50 ([3]; ADP-Glo): 4.1 nM | EC50 [4, 8]: 3.1 nM | EC50 [4, 9]: 1.3 nM | EC50 [6]: 2.6 nM

C[C@H]1CCN1c1nc2c(c(-c3ccc4cnc(O)cc4c3)n1)CCC2 [Example 380, 6-[2-[(2S)-2-methylazetidin-1-yl]-6,7-dihydro-5H-cyclopenta[d]pyrimidin-4-yl]isoquinolin-3-ol]
pKa [1, 7]: 4.21 | pKa [1, 10]: 9.04 | IC50 ([2]; ADP-Glo): 7.9 nM | IC50 ([3]; ADP-Glo): 13 nM | EC50 [6]: 75.7 nM

C[C@H]1CCN1c1nc2c(c(-c3ccc4c(O)nc(O)cc4c3)n1)CCC2 [Example 381, 6-[2-[(2S)-2-methylazetidin-1-yl]-6,7-dihydro-5H-cyclopenta[d]pyrimidin-4-yl]isoquinoline-1,3-diol]
pKa [1, 7]: 4.12 | pKa [1, 10]: 8.07 | IC50 ([2]; ADP-Glo): 89.7 nM | IC50 ([3]; ADP-Glo): 18.9 nM | EC50 [6]: > 5000 nM

C[C@H]1CCN1c1nc2c(c(-c3ccc(CN)s3)n1)CCC2 [Example 459, [5-[2-[(2S)-2-methylazetidin-1-yl]-6,7-dihydro-5H-cyclopenta[d]pyrimidin-4-yl]-2-thienyl]methanamine]
pKa [1, 7]: 4.27 | pKa [1, 10]: 8.65 | IC50 [2]: 6.6 nM | IC50 [3]: 11.1 nM | IC50 [5]: 13200 nM | EC50 [6]: 42.1 nM

C[C@H]1CCN1c1nc2c(c(-c3ccc(CNS(C)(=O)=O)s3)n1)CCC2 [Example 460, N-[[5-[2-[(2S)-2-methylazetidin-1-yl]-6,7-dihydro-5H-cyclopenta[d]pyrimidin-4-yl]-2-thienyl]methyl]methanesulfonamide]
pKa [1, 7]: 4.66 | pKa [1, 10]: 11.2 | IC50 [2]: 5.2 nM | IC50 [3]: 10.9 nM | EC50 [6]: 23.6 nM

C[C@H]1[C@H](O)CN1c1nc(-c2ccc3c(c2)S(=O)(=O)CCNC3)c2c(n1)C(F)(F)CC2 [Example 489]
pKa [1, 7]: 5.3 | IC50 [2]: 3.5 nM | IC50 [3]: 5.2 nM | EC50 [4, 8]: 20.2 nM | EC50 [4, 9]: 16.5 nM | IC50 [5]: 2670 nM

O=S1(=O)CCNCc2ccc(-c3nc(N4CC[C@@H]4CF)nc4c3CCC4(F)F)cc21 [Example 490, (R)-8-(7,7-difluoro-2-(2-(fluoromethyl)azetidin-1-yl)-6,7-dihydro-5H-cyclopenta[d]pyrimidin-4-yl)-2,3,4,5-tetrahydrobenzo[f][1,4]thiazepine 1,1-dioxide]
pKa [1, 7]: 5.5 | IC50 [2]: 1.2 nM | IC50 [3]: 4.6 nM | EC50 [4, 8]: 19.3 nM | EC50 [4, 9]: 9.3 nM | IC50 [5]: 939 nM

C[C@H]1[C@H](O)CN1c1nc(-c2ccc(C3(N)CC(F)(F)C3)cc2)c2c(n1)C(F)(F)CC2 [Example 646, (2S,3R)-1-[4-[4-(1-amino-3,3-difluoro-cyclobutyl)phenyl]-7,7-difluoro-5,6-dihydrocyclopenta[d]pyrimidin-2-yl]-2-methyl-azetidin-3-ol]
pKa [1, 7]: 6.6 | IC50 [2]: 2.7 nM | EC50 [4, 8]: 22.4 nM | EC50 [4, 9]: 14.3 nM | IC50 [5]: 5010 nM | EC50 [6]: 7.4 nM

N#C[C@H]1CCN1c1nc(-c2ccc(C3(N)COC3)cc2)c2c(n1)C(F)(F)CC2 [Example 711, (R)-1-(4-(4-(3-aminooxetan-3-yl)phenyl)-7,7-difluoro-6,7-dihydro-5H-cyclopenta[d]pyrimidin-2-yl)azetidine-2-carbonitrile]
pKa [1, 7]: 6.3 | IC50 [2]: 6.1 nM | EC50 [4, 8]: 33.7 nM | EC50 [4, 9]: 28.2 nM | IC50 [5]: 12800 nM | EC50 [6]: 35.2 nM

C[C@H]1CCN1c1nc2c(c(-c3ccc4c(c3)OCC4N)n1)CCC2 (stereo partly drawn) [Example 754, 6-[2-[(2S)-2-methylazetidin-1-yl]-6,7-dihydro-5H-cyclopenta[d]pyrimidin-4-yl]-2,3-dihydrobenzofuran-3-amine]
pKa [1, 7]: 4.2 | IC50 [2]: 1.9 nM | EC50 [4, 8]: 11.7 nM | EC50 [6]: 14.6 nM

COc1ccc(-c2nc(N3C[C@@H](O)[C@@H]3C)nc3c2CCC3(F)F)cc1S(N)(=O)=O [Example 763, 5-(7,7-difluoro-2-((2S,3R)-3-hydroxy-2-methylazetidin-1-yl)-6,7-dihydro-5H-cyclopenta[d]pyrimidin-4-yl)-2-methoxybenzenesulfonamide]
pKa [1, 7]: 1.7 | IC50 [2]: 3 nM | IC50 [3]: 3.6 nM | EC50 [4, 8]: 8 nM | EC50 [4, 9]: 6.9 nM | IC50 [5]: 2570 nM

C[C@H]1[C@H](F)CN1c1nc(-c2ccc([C@]3(N)C[S@@](=N)(=O)C3)cc2)c2c(n1)C(F)(F)CC2 [Example 797, (1R,3s)-3-amino-3-(4-(7,7-difluoro-2-((2S,3R)-3-fluoro-2-methylazetidin-1-yl)-6,7-dihydro-5H-cyclopenta[d]pyrimidin-4-yl)phenyl)-1-imino-1λ^6-thietane 1-oxide]
1st pKa [1]: 4.7 | IC50 ([2]; ADP-Glo): 0.2 nM | IC50 ([3]; ADP-Glo): 7.3 nM | EC50 ([6]; read-out: NRK CTG EC50, NRK-52E cells, Cell-Titer Glo, 25 mM fructose, 48 hours): 16.4 nM

NC1(c2ccc(-c3nc(N4CC[C@@H]4C(F)(F)F)nc4c3CCC4(F)F)cc2)CS(=O)(=O)C1 [Example 802, (R)-3-amino-3-(4-(7,7-difluoro-2-(2-(trifluoromethyl)azetidin-1-yl)-6,7-dihydro-5H-cyclopenta[d]pyrimidin-4-yl)phenyl)thietane 1,1-dioxide]
pKa [1, 7]: 4.6 | IC50 [5]: 10600 nM
